Source: publication PMC9154192 (PLoS Biology, 2022)
In brackets after ≈: the same amount, converted by molar mass. Several values for one entry are separate records, joined by “and”; a condition that tells them apart may be missing. Equal entries are not always repeated. Where two headings read alike, the source gives them in different places.

How the values were obtained:
intestinal microbiome = experiment: Gut microbiome, 16s rRNA gene-based metagenomics analysis of feces; type: in vivo, BALB/c mice; conditions: 30 mg/kg oral once a day for 7 days, BALB/c mice, feces
Experimental: Six-week-old BALB/c female mice were used for this study (6 mice for each group). Each drug was administered orally at 30 mg/kg once daily for 7 days. Stool was collected, and 16 rRNA gene-based metagenomics analysis was performed. Corn oil was used as the vehicle. The drug-free group received corn oil only. This animal experiment was conducted with the approval of the IACUC of the Soonchunhyang University (approval number: SCH21-0011). Microbiome analysis of collected feces was carried out as previously described with some modifications. Total DNA was extracted from the stool using the QIAamp DNA stool mini kit (Qiagen, Germany) after mechanical disruption using lysing matrix B tubes (MP Biomedicals, USA). V4 region of 16S RNA gene was amplified from extracted DNA with the following primers: forward primer ([…]) and reverse primer ([…]). PCR was performed using the Kappa HiFi hot start kit (KAPA Biosystems, USA) for 16s gene amplification and library preparation. A dsDNA HS assay kit and Qubit 4 fluorimeter (Invitrogen, USA) were used for DNA quantification. After each step, quality was checked using Agilent High Sensitivity DNA Kit and Agilent Bioanalyzer 2100 (Agilent Technologies, USA). Clean-up was performed using AMPure XP beads (Beckman Coulter, UK). The metagenomic library was prepared using a Nextera XT DNA Library Prep Kit (Illumina, USA) and loaded into an iSeq-100 reagent cartridge (Illumina, USA) together with a PhiX Control library (Illumina, USA). A 300-bp paired-end sequencing was performed on an iSeq-100 platform (Illumina, USA). Sequencing data were analyzed using the EzBioCloud server (Chunlab, Korea).

XDR M. tuberculosis = type: cell-based, Mycobacterium tuberculosis
M. tuberculosis H37Rv [1] = type: cell-based, Mycobacterium tuberculosis; conditions: for RFU/200 μl (replicates1-3), single values / RFU/ml (×104) / RFU/200 μl (average): Fig 2A
M. kyorinense = experiment: microbe, parasite or virus in culture; type: cell-based; conditions: Mycobacterium kyorinense
M. marinum = experiment: microbe, parasite or virus in culture; type: cell-based; conditions: Mycobacterium marinum
M. abscessus = experiment: microbe, parasite or virus in culture; type: cell-based, Mycobacterium abscessus; conditions: Mycobacteroides abscessus
in vitro = type: cell-based; conditions: human
Experimental: A549 human pulmonary epithelial cells (KCLB 10185), human embryonic kidney (HEK) 293 cells (KCLB 21573), human THP-1 leukemia cells (KCLB 40202), human neuroblastoma SH-SY5Y cells (KCLB 22266), Murine Raw 264.7 macrophages (KCLB 40071), and L929 murine fibroblasts (KCLB 10001) were purchased from the KCLB (Seoul, Korea). Cytotoxicity testing was performed using the MTT assay and the WST-1 cell viability assay as previously described.

M. szulgai = experiment: microbe, parasite or virus in culture; type: cell-based; conditions: Mycobacterium szulgai
M. tuberculosis H37Rv [2] = type: cell-based, Mycobacterium tuberculosis; conditions: H37Rv
M. tuberculosis H37Rv [3] = type: in vivo, BALB/c mice; set-up: Efficacy in BALB/C mouse model of pulmonary tuberculosis, Average / Efficacy in BALB/C mouse model of pulmonary tuberculosis, values of mice 1-6: unit not given here; conditions: Fig 4C, group dose 30, 6 mice
M. smegmatis = experiment: microbe, parasite or virus in culture; type: cell-based, Mycobacterium smegmatis; conditions: Mycolicibacterium smegmatis
M. aubagnense = experiment: microbe, parasite or virus in culture; type: cell-based, Mycobacterium aubagnense; conditions: Mycolicibacterium aubagnense
M. phlei = experiment: microbe, parasite or virus in culture; type: cell-based, Mycobacterium phlei; conditions: Mycolicibacterium phlei
M. conceptionense = experiment: microbe, parasite or virus in culture; type: cell-based, Mycobacterium conceptionense; conditions: Mycolicibacterium senegalense
M. peregrinum = experiment: microbe, parasite or virus in culture; type: cell-based, Mycobacterium peregrinum; conditions: Mycolicibacterium peregrinum
M. colombiense = experiment: microbe, parasite or virus in culture; type: cell-based; conditions: Mycobacterium colombiense
M. marseiliense = experiment: microbe, parasite or virus in culture; type: cell-based; conditions: Mycobacterium
M. tuberculosis H37Rv [4] = experiment: Luminescence-based microbial cell viability assay; set-up: species or system Mycobacterium tuberculosis; conditions: for RLU/50ul (replicates1-3), single values / RLU/ml (×100) / RLU/50ul (average): Fig 2C
M. gilvum = experiment: microbe, parasite or virus in culture; type: cell-based, Mycobacterium gilvum; conditions: Mycolicibacterium gilvum
M. intracellulare = experiment: microbe, parasite or virus in culture; type: cell-based; conditions: Mycobacterium intracellulare
M. xenopi = experiment: microbe, parasite or virus in culture; type: cell-based; conditions: Mycobacterium xenopi
M. neoaurum = experiment: microbe, parasite or virus in culture; type: cell-based, Mycobacterium neoaurum; conditions: Mycolicibacterium neoaurum
M. arupense = experiment: microbe, parasite or virus in culture; type: cell-based, Mycobacterium arupense; conditions: Mycolicibacter arupensis
[5] = drug conc. 0.19, average of each replicate set
[6] = drug conc. 0.39, average of each replicate set
[7] = drug conc. 0.78, average of each replicate set

NNC(=O)c1ccncc1 [INH, isoniazid, reference compound]
beta set-significance analysis, pair-wise comparison of gut microbiome (intestinal microbiome): not significant | difference in phylum or class level taxa compared to drug-free group (intestinal microbiome): did not significantly differ | phylogenetic diversity compared to drug-free control group (intestinal microbiome): no significant change | RFU/200 μl (replicates1-3), single values (XDR M. tuberculosis): 29490 RFU/200 μl and 29760 RFU/200 μl and 24060 RFU/200 μl and 22090 RFU/200 μl and 22930 RFU/200 μl and 29240 RFU/200 μl and 29310 RFU/200 μl and 29280 RFU/200 μl and 29510 RFU/200 μl and 51780 RFU/200 μl and 52060 RFU/200 μl and 51260 RFU/200 μl and 49980 RFU/200 μl and 50610 RFU/200 μl and 51510 RFU/200 μl and 51660 RFU/200 μl and 51460 RFU/200 μl and 51820 RFU/200 μl and 56880 RFU/200 μl and 57100 RFU/200 μl and 53750 RFU/200 μl and 53730 RFU/200 μl and 46980 RFU/200 μl and 53520 RFU/200 μl and 53690 RFU/200 μl and 53460 RFU/200 μl and 56940 RFU/200 μl | RFU/ml (×104) (XDR M. tuberculosis): 13.6 RFU/ml (×104) and 25.7 RFU/ml (×104) and 27.0 RFU/ml (×104) | antitubercular effect (XDR M. tuberculosis): did not show a significant antitubercular effect | RFU/200 μl (replicates1-3), single values (M. tuberculosis H37Rv [1]; drug conc. 0.19): 54850 RFU/200 μl and 54780 RFU/200 μl and 48860 RFU/200 μl and 48850 RFU/200 μl and 51920 RFU/200 μl and 53630 RFU/200 μl and 53710 RFU/200 μl and 53510 RFU/200 μl and 54820 RFU/200 μl | RFU/ml (×104) (M. tuberculosis H37Rv [1]; drug conc. 0.19): 26.4 RFU/ml (×104) | RFU/200 μl (average) (M. tuberculosis H37Rv [1]; [5]): 49877 RFU/200 μl and 53617 RFU/200 μl and 54817 RFU/200 μl | RFU/200 μl (replicates1-3), single values (M. tuberculosis H37Rv [1]; drug conc. 0.39): 12610 RFU/200 μl and 12620 RFU/200 μl and 10050 RFU/200 μl and 11010 RFU/200 μl and 12080 RFU/200 μl and 10560 RFU/200 μl and 10740 RFU/200 μl and 10520 RFU/200 μl and 12650 RFU/200 μl | RFU/ml (×104) (M. tuberculosis H37Rv [1]; drug conc. 0.39): 5.7 RFU/ml (×104) | RFU/200 μl (average) (M. tuberculosis H37Rv [1]; [6]): 11047 RFU/200 μl and 10607 RFU/200 μl and 12627 RFU/200 μl | RFU/200 μl (replicates1-3), single values (M. tuberculosis H37Rv [1]; drug conc. 0.78): 7570 RFU/200 μl and 7470 RFU/200 μl and 7230 RFU/200 μl and 7160 RFU/200 μl and 7680 RFU/200 μl and 7340 RFU/200 μl and 7150 RFU/200 μl and 7460 RFU/200 μl and 7540 RFU/200 μl | RFU/ml (×104) (M. tuberculosis H37Rv [1]; drug conc. 0.78): 3.7 RFU/ml (×104) | RFU/200 μl (average) (M. tuberculosis H37Rv [1]; [7]): 7357 RFU/200 μl and 7317 RFU/200 μl and 7527 RFU/200 μl | concentration with significant antitubercular effect (M. tuberculosis H37Rv [1]; fluorescence-based assay): 0.78 µg/mL and 0.39 µg/mL | MIC (M. kyorinense): 3.1 µg/mL (≈ 22.6 µM) | MIC (M. marinum): 25 µg/mL (≈ 182 µM) | MIC (M. abscessus): > 100 µg/mL | CC50 (in vitro; A549): > 500 µg/mL | CC50 (in vitro; HEK-293): > 500 µg/mL | CC50 (in vitro; SH-SY5Y): > 500 µg/mL | CC50 (in vitro; THP-1): > 500 µg/mL | MIC (M. szulgai): 1.6 µg/mL (≈ 11.7 µM) | CFU/ml (average) (M. tuberculosis H37Rv [2]; Fig 3A, drug conc. 12.5): 2420 CFU/ml | Intracellular M. tuberculosis, % (Drug Free = 100.0) (M. tuberculosis H37Rv [2]; Fig 3A, drug conc. 12.5): 7.2% | CFU/ml (average) (M. tuberculosis H37Rv [2]; Fig 3A, drug conc. 25): 203 CFU/ml | Intracellular M. tuberculosis, % (Drug Free = 100.0) (M. tuberculosis H37Rv [2]; Fig 3A, drug conc. 25): 0.6% | CFU/ml (average) (M. tuberculosis H37Rv [2]; Fig 3B, drug conc. 12.5): 2120 CFU/ml | Intracellular M. tuberculosis, % (Drug Free = 100.0) (M. tuberculosis H37Rv [2]; Fig 3B, drug conc. 12.5): 6.3% | CFU/ml (average) (M. tuberculosis H37Rv [2]; Fig 3B, drug conc. 25): 133 CFU/ml | Intracellular M. tuberculosis, % (Drug Free = 100.0) (M. tuberculosis H37Rv [2]; Fig 3B, drug conc. 25): 0.4% | Efficacy in BALB/C mouse model of pulmonary tuberculosis, Average (M. tuberculosis H37Rv [3]): 226667 | MIC (M. smegmatis): 25 µg/mL (≈ 182 µM) | MIC (M. aubagnense): > 100 µg/mL | MIC (M. phlei): > 100 µg/mL | MIC (M. conceptionense): 25 µg/mL (≈ 182 µM) | MIC (M. peregrinum): 6.3 µg/mL (≈ 45.9 µM) | MIC (M. colombiense): 12.5 µg/mL (≈ 91.1 µM) | MIC (M. marseiliense): > 100 µg/mL | RLU/50ul (replicates1-3), single values (M. tuberculosis H37Rv [4]; drug conc. 0.19): 1310 RLU/50ul and 1170 RLU/50ul and 1890 RLU/50ul and 1990 RLU/50ul and 2130 RLU/50ul and 1740 RLU/50ul and 1790 RLU/50ul and 1620 RLU/50ul and 1290 RLU/50ul | RLU/ml (×100) (M. tuberculosis H37Rv [4]; drug conc. 0.19): 331.8 RLU/ml (×100) | RLU/50ul (average) (M. tuberculosis H37Rv [4]; [5]): 2003 RLU/50ul and 1717 RLU/50ul and 1257 RLU/50ul | RLU/50ul (replicates1-3), single values (M. tuberculosis H37Rv [4]; drug conc. 0.39): 340 RLU/50ul and 310 RLU/50ul (2×) and 220 RLU/50ul and 250 RLU/50ul and 320 RLU/50ul (3×) and 360 RLU/50ul | RLU/ml (×100) (M. tuberculosis H37Rv [4]; drug conc. 0.39): 61.1 RLU/ml (×100) | RLU/50ul (average) (M. tuberculosis H37Rv [4]; [6]): 263 RLU/50ul and 317 RLU/50ul and 337 RLU/50ul | RLU/50ul (replicates1-3), single values (M. tuberculosis H37Rv [4]; drug conc. 0.78): 120 RLU/50ul (3×) and 100 RLU/50ul and 130 RLU/50ul (2×) and 180 RLU/50ul and 150 RLU/50ul and 140 RLU/50ul | RLU/ml (×100) (M. tuberculosis H37Rv [4]; drug conc. 0.78): 26.4 RLU/ml (×100) | RLU/50ul (average) (M. tuberculosis H37Rv [4]; [7]): 143 RLU/50ul and 137 RLU/50ul and 117 RLU/50ul | concentration with significant antitubercular effect (M. tuberculosis H37Rv [4]; luminescence-based assay): 0.78 µg/mL and 0.39 µg/mL | MIC (M. gilvum): 12.5 µg/mL (≈ 91.1 µM) | MIC (M. intracellulare): 25 µg/mL (≈ 182 µM) | MIC (M. xenopi): 1.6 µg/mL (≈ 11.7 µM) | MIC (M. neoaurum): 3.1 µg/mL (≈ 22.6 µM) | MIC (M. arupense): 50 µg/mL (≈ 365 µM)
